Laboratory results taken from ChEMBL document CHEMBL1201862, “PubChem BioAssay data set” (2004).
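Dose response: 5 concentrations. Exposure: 48 h. Format: 96-well plates. Endpoint: linear interpolation; highest concentration if not reached. GI50 is the concentration that inhibits growth by half.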 The source made the active and inactive calls. Rule as the data show it: active = GI50 up to about 1.1 µM and inactive = higher.

Tests used:
Assay in all cases: DTP human tumour cell line panel, 48 h
SK-MEL-2 = test system: SK-MEL-2
MDA-MB-435 = test system: MDA-MB-435
UACC-257 = test system: UACC-257
SF-268 = test system: SF-268
HT-29 = test system: HT-29
CAKI-1 = test system: CAKI-1
HCT-15 = test system: HCT-15
OVCAR-5 = test system: OVCAR-5
CCRF-CEM = test system: CCRF-CEM
T47D = test system: T47D
NCI-H23 = test system: NCI-H23
HL-60 = test system: HL-60
SK-OV-3 = test system: SK-OV-3
SW-620 = test system: SW-620
K562 = test system: K562
BT-549 = test system: BT-549
HCT-116 = test system: HCT-116
SF-539 = test system: SF-539
LOX IMVI = test system: LOX IMVI
SK-MEL-28 = test system: SK-MEL-28

CC(C)OP(=O)(CN(C)/C(F)=N\C(F)(F)F)OC(C)C
GI50 (SK-MEL-2): > 100 µM (inactive) | GI50 (MDA-MB-435): > 100 µM (inactive) | GI50 (UACC-257): > 100 µM (inactive) | GI50 (SF-268): > 100 µM (inactive) | GI50 (HT-29): > 100 µM (inactive) | GI50 (CAKI-1): > 100 µM (inactive) | GI50 (HCT-15): > 100 µM | GI50 (OVCAR-5): > 100 µM (inactive) | GI50 (CCRF-CEM): > 100 µM (inactive) | GI50 (T47D): > 100 µM (inactive) | GI50 (NCI-H23): > 100 µM (inactive) | GI50 (HL-60): 63.8 µM (inactive) | GI50 (SK-OV-3): > 100 µM (inactive) | GI50 (SW-620): > 100 µM (inactive) | GI50 (K562): > 100 µM (inactive) | GI50 (BT-549): > 100 µM (inactive) | GI50 (HCT-116): > 100 µM (inactive) | GI50 (SF-539): > 100 µM (inactive) | GI50 (LOX IMVI): > 100 µM (inactive) | GI50 (SK-MEL-28): > 100 µM (inactive)

Nc1c([N+](=O)[O-])cc2c3c(cccc13)CC2
GI50 (SK-MEL-2): 51.3 µM (inactive) | GI50 (MDA-MB-435): 62.5 µM (inactive) | GI50 (UACC-257): > 100 µM (inactive) | GI50 (SF-268): 83.6 µM (inactive) | GI50 (HT-29): 98.9 µM (inactive) | GI50 (CAKI-1): > 100 µM (inactive) | GI50 (HCT-15): 65.9 µM | GI50 (OVCAR-5): > 100 µM (inactive) | GI50 (CCRF-CEM): 90.6 µM (inactive) | GI50 (T47D): 30.1 µM (inactive) | GI50 (NCI-H23): 55 µM (inactive) | GI50 (HL-60): 74.6 µM (inactive) | GI50 (SK-OV-3): 51.2 µM (inactive) | GI50 (SW-620): 82.2 µM (inactive) | GI50 (K562): > 100 µM (inactive) | GI50 (BT-549): 74.6 µM (inactive) | GI50 (HCT-116): 39.1 µM (inactive) | GI50 (SF-539): 31.5 µM (inactive) | GI50 (LOX IMVI): 65.2 µM (inactive) | GI50 (SK-MEL-28): > 100 µM (inactive)

C[C@@H](C[C@H]1OC(C)(C)O[C@@H]1C(C)(C)O)[C@H]1CC=C2[C@]3(C)[C@H](O)C[C@H]4C(C)(C)[C@H](O)CC[C@]4(C)[C@H]3CC[C@]21C
GI50 (SK-MEL-2): 11.5 µM (inactive) | GI50 (MDA-MB-435): 8.28 µM (inactive) | GI50 (UACC-257): 8.81 µM (inactive) | GI50 (SF-268): 10.5 µM (inactive) | GI50 (HT-29): 2.9 µM (inactive) | GI50 (CAKI-1): 10.8 µM (inactive) | GI50 (HCT-15): 6.03 µM | GI50 (OVCAR-5): 8.69 µM (inactive) | GI50 (CCRF-CEM): 5.64 µM (inactive) | GI50 (T47D): 7.73 µM (inactive) | GI50 (NCI-H23): 9.86 µM (inactive) | GI50 (HL-60): 2.62 µM (inactive) | GI50 (SK-OV-3): 12.5 µM (inactive) | GI50 (SW-620): 10.7 µM (inactive) | GI50 (K562): 3.99 µM (inactive) | GI50 (BT-549): 11.4 µM (inactive) | GI50 (HCT-116): 5.86 µM (inactive) | GI50 (SF-539): 11.9 µM (inactive) | GI50 (LOX IMVI): 8.13 µM (inactive) | GI50 (SK-MEL-28): 9.95 µM (inactive)

COc1ccc(OC)c2c(Nc3ccc(S(=O)(=O)O)c4cc(S(=O)(=O)O)cc(S(=O)(=O)O)c34)cc(C)nc12
GI50 (SK-MEL-2): > 100 µM (inactive) | GI50 (MDA-MB-435): > 100 µM (inactive) | GI50 (UACC-257): > 100 µM (inactive) | GI50 (SF-268): > 100 µM (inactive) | GI50 (HT-29): > 100 µM (inactive) | GI50 (CAKI-1): > 100 µM (inactive) | GI50 (HCT-15): > 100 µM | GI50 (OVCAR-5): > 100 µM (inactive) | GI50 (CCRF-CEM): > 100 µM (inactive) | GI50 (T47D): > 100 µM (inactive) | GI50 (NCI-H23): > 100 µM (inactive) | GI50 (HL-60): > 100 µM (inactive) | GI50 (SK-OV-3): > 100 µM (inactive) | GI50 (SW-620): > 100 µM (inactive) | GI50 (K562): > 100 µM (inactive) | GI50 (BT-549): > 100 µM (inactive) | GI50 (HCT-116): > 100 µM (inactive) | GI50 (SF-539): > 100 µM (inactive) | GI50 (LOX IMVI): > 100 µM (inactive) | GI50 (SK-MEL-28): > 100 µM (inactive)

C=C(C)C(=O)OC1C[C@H](COC(C)=O)C2CC=C(CO)C2C2OC(=O)C(=C)[C@H]12 (stereo not given in full)
GI50 (SK-MEL-2): 40.3 µM (inactive) | GI50 (MDA-MB-435): 35.3 µM (inactive) | GI50 (UACC-257): 38.8 µM (inactive) | GI50 (SF-268): 23.6 µM (inactive) | GI50 (HT-29): 32.3 µM (inactive) | GI50 (CAKI-1): 41.6 µM (inactive) | GI50 (HCT-15): 24.8 µM | GI50 (OVCAR-5): > 100 µM (inactive) | GI50 (CCRF-CEM): 10.4 µM (inactive) | GI50 (T47D): 34.8 µM (inactive) | GI50 (NCI-H23): 42.8 µM (inactive) | GI50 (HL-60): 23.1 µM (inactive) | GI50 (SK-OV-3): > 100 µM (inactive) | GI50 (SW-620): 16.2 µM (inactive) | GI50 (K562): 14.9 µM (inactive) | GI50 (BT-549): 61.1 µM (inactive) | GI50 (HCT-116): 18.3 µM (inactive) | GI50 (SF-539): > 100 µM (inactive) | GI50 (LOX IMVI): 26.7 µM (inactive) | GI50 (SK-MEL-28): 32.3 µM (inactive)
